From ChEMBL document CHEMBL1130538, “Catalytic mechanism of KDO8P synthase: synthesis and evaluation of a putative reaction intermediate” (Bioorg Med Chem Lett, 1997) come the findings set out here.

Data set [1] can be described thus: Half-life was determined at pD 7.0 and 25 degree Centigrade. The format is ADME. The following applies: pH 7.
The nature of data set [2]: The inhibitory activity against KDO 8-P synthase was determined. Details: species or system Escherichia coli.
Data set [3] is described as follows: Half-life was determined at pD 7.0 and 37 degree Centigrade. The format is ADME. The following applies: pH 7.

Turning to `O=C(O)C1(OP(=O)(O)O)CC(O)C(O)C([C@H](O)COP(=O)(O)O)O1` (stereo partly drawn), the half-life in data set [1] is 4.7 h; in data set [3] it was 2.5 h. The compound also had an inhibition constant Ki in data set [2] of 35 µM.
